According to ChEMBL document CHEMBL5356997, “Maydistacins A-G, Terpestacin-type Sesterterpenoids with Anti-inflammatory Activity from the Phytopathogenic Fungus Bipolaris maydis” (J Nat Prod, 2024):

Assays:
[1] = test system: RAW264.7; experiment: Antiinflammatory activity against LPS-stimulated mouse RAW264.7 cells assessed as inhibition of NO production at 50 uM preincubated with compound for 2 hrs followed by LPS stimulation and measured after 12 hrs by Griess reagent based microplate reader analysis relative to control; type: functional; settings: time 14 hrs
[2] = Cytotoxicity against mouse RAW264.7 cells assessed as cell survival at 50 uM by MTT assay relative to control; type: toxicity, cell-based; settings: read-out: Activity
[3] = test system: RAW264.7; experiment: Antiinflammatory activity against LPS-stimulated mouse RAW264.7 cells assessed as inhibition of NO production preincubated with compound for 2 hrs followed by LPS stimulation and measured after 12 hrs by Griess reagent based microplate reader analysis; type: functional, cell-based

Compound	inhibition at 50 µM [1]	viability at 50 µM [2]	IC50 [3]
CC(=O)O[C@H]1CC/C(C)=C/CC/C(C)=C/C[C@]2(C)C(=O)C(O)=C([C@H](C)CO)[C@H]2C/C=C/1C	< 40%	> 90%	–
C/C1=C\C[C@]2(C)C(=O)C(O)=C([C@H](C)CO)[C@H]2C[C@H]2O[C@]2(C)[C@@H](O)CC/C(C)=C/CC1	< 40%	> 90%	–
CC(=O)OC[C@@H](C)C1=C(O)C(=O)[C@@]2(C)C/C=C(\C)CC/C=C(\C)CC[C@H](O)[C@@]3(C)O[C@@H]3C[C@H]12	< 40%	> 90%	–
C/C1=C\C[C@]2(C)C(=O)C(O)=C([C@H](C)CO)[C@H]2C/C=C(\C)[C@@H]2CC[C@](C)(/C=C/C1)O2	< 40%	> 90%	–
C/C1=C\C[C@]2(C)C(=O)C(O)=C([C@H](C)CO)[C@H]2C/C=C(\C)C(=O)CC/C(C)=C/CC1	–	> 90%	19 µM
CC(=O)OC[C@@H](C)C1=C(O)C(=O)[C@@]2(C)C/C=C(\C)CC/C=C(\C)CC[C@H](O)/C(C)=C/C[C@H]12 [FUSAPROLIFERIN]	< 40%	> 90%	–
CC(=O)OC[C@@H](C)C1=C(O)C(=O)[C@@]2(C)C/C=C(\C)C/C=C/[C@](C)(O)CC[C@@H](O)/C(C)=C/C[C@H]12	< 40%	> 90%	–
C[C@@H]1C[C@H]2[C@@H]3CCC4=CC(=O)C=C[C@]4(C)[C@@]3(F)[C@@H](O)C[C@]2(C)[C@@]1(O)C(=O)CO [DEXAMETHASONE]	–	–	6.7 µM
C/C1=C\C[C@]2(C)C(=O)C(O)=C([C@H](C)CO)[C@H]2C/C=C(\C)[C@@H](O)CC/C(C)=C/CC1 [TERPESTACIN]	< 40%	> 90%	–
CC(=O)OC[C@@H](C)C1=C(O)C(=O)[C@@]2(C)C/C=C(\C)CC[C@@H]3O[C@@]3(C)CC[C@H](O)/C(C)=C/C[C@H]12	< 40%	> 90%	–
